Assay results published in patent US20230210834A1, “RNA METHYLTRANSFERASE INHIBITOR, SCREENING METHOD THEREFOR, ANTI-CANCER AGENT EFFICACY ASSESSMENT MARKER, AND KIT FOR EFFECTIVELY PREDICTING FTSJ1 INHIBITOR” (National University Corporation Okayama University, priority 2019, published 2023).

What was measured:
[1] = test system: polyglutamine luciferase reporter; experiment: Screening: polyglutamine luciferase reporter assay in NUGC3 cells (luminescence % of DMSO); format: cell-based, human; settings: NUGC3 cells, luminescence relative to DMSO, concentration not given
[2] = test system: triple-negative breast cancer cell line MDA-MB-231; experiment: Anti-tumor effect evaluation test in MDA-MB-231 tumor model mice; format: in vivo, immunodeficient mice (BALB/c-nu/nu); settings: 100 mg/kg intraperitoneally every other day in corn oil; FIG. 1 and 2
Protocol: A cell suspension (1×10^6 cells/100 μL), in which triple-negative breast cancer cell line MDA-MB-231 was suspended in phosphate buffer (PBS, produced by FUJIFILM Wako Pure Chemical Corporation), was inoculated subcutaneously in the dorsal lumbar region of immunodeficient mice (BALB/c-nu/nu, female, 6 weeks old, purchased from Shimizu Laboratory Supplies Co., Ltd.) using a syringe with a 23 G injection needle (Terumo Corporation). After confirming that the cancer cells engrafted under the skin of the mice to form tumor tissues, and that the tumor volume reached 100 mm^3, the obtained tumor model mice were used for the following evaluation test. First, each compound for evaluation was dissolved in corn oil (produced by Sigma-Aldrich Co., LLC) and administered intraperitoneally. PVZF0024 was administered at 100 mg/kg and PVZF2001 was administered at 20 mg/kg to the tumor model mice every other day. At each administration, the tumor diameter was measured with a caliper. The tumor volume was calculated according to the following formula: V=(3.14×D×d^2)/6 (wherein V is the tumor volume, D is the tumor major axis, and d is the tumor minor axis) (Wu. et al., Clin. Cancer Res., 2013 Oct. 15; 19(20): 5699-5710).

YAP/TAZ = experiment: Screening: YAP/TAZ activity reporter (8xGTIIC plasmid) assay in NUGC3 cells (luminescence % of DMSO); format: cell-based, human; settings: NUGC3 cells, luminescence relative to DMSO, concentration not given
[3] = polyglutamine luciferase reporter
[4] = YAP/TAZ activity reporter (8×GTIIC)

| Compound | Polyglutamine [1] [%] | antitumor effect (tumor growth, tumor volume) [2] | 8×GTIIC (YAP/TAZ) [%] | Polyglutamine [1, 3] [%] | 8×GTIIC (YAP/TAZ; [4]) [%] |
| --- | --- | --- | --- | --- | --- |
| Oc1ccccc1C1CC(c2ccc3c(c2)OCCO3)=NN1 (centres unmarked) [PVZF0024] | 15.8 | significantly inhibit tumor growth | 23.4 |  |  |
| Cc1cc(C(C)C)cc(S(=O)(=O)CC2CCC(S(C)(=O)=O)CC2)c1C (centres unmarked) [SA078] |  |  |  | 87.12 | 95.87 |
| Cc1c(C)c(C)c(S(=O)(=O)CC2CCC(S(C)(=O)=O)CC2)c(C)c1C (centres unmarked) [SA080] |  |  |  | 55.01 | 62.45 |
| Cc1ccc(S(=O)(=O)CC2CCC(S(C)(=O)=O)CC2)c(C(C)(C)C)c1 (centres unmarked) [SA085] |  |  |  | 86 | 83.09 |
| Cc1cc(C)c(C)c(S(=O)(=O)CC2CCC(S(C)(=O)=O)CC2)c1C (centres unmarked) [SA086] |  |  |  | 33.07 | 40.75 |
| CC(C)(C)c1ccccc1S(=O)(=O)CC1CCC(C2CC2)CC1 (centres unmarked) [SA087] |  |  |  | 78.43 | 59.57 |
| CC(C)(C)Cc1ccccc1S(=O)(=O)CC1CCC(C2CC2)CC1 (centres unmarked) [SA089] |  |  |  | 56.61 | 50.1 |
| CC1CC(C)CC(S(=O)(=O)C2CCC(CS(=O)(=O)c3ccccc3)CC2)C1 (centres unmarked) [SA090] |  |  |  | 84.73 | 64.02 |
| O=S(=O)(CC1CCC(C2CC2)CC1)c1ccc2c(c1)CCC2 (centres unmarked) [SA091] |  |  |  | 88.36 | 101.3 |
| Cc1cc(C)c(C)c(S(=O)(=O)CC2CCC(S(C)(=O)=O)CC2)c1C (centres unmarked) [SA093] |  |  |  | 38.43 | 39.06 |
| CCc1ccc(CC)c(S(=O)(=O)CC2CCC(S(C)(=O)=O)CC2)c1 (centres unmarked) [SA095] |  |  |  | 44.97 | 67.3 |
